Assay results reported in ChEMBL document CHEMBL4152362, “Discovery of DS-6930, a potent selective PPARγ modulator. Part II: Lead optimization” (Bioorg Med Chem, 2018).
The source made the active and inactive calls. The calls are words filed in the database; no cut-off is given here.

Experiments:
[1] = system: Rattus norvegicus; test: Antidiabetic activity in Zucker diabetic fatty rat assessed as reduction in plasma glucose level at 3 mg/kg, po administered once daily for 14 days measured on day 15 relative to control; format: functional; design: scale not given: the % may be the effect or the level left
[2] = target: T1, Peroxisome proliferator-activated receptor gamma (Homo sapiens) (UniProt P37231); test: Agonist activity at recombinant human GAL4-TAD fused PPARgamma LBD assessed as induction of GAL4-DBD fused SRC1 co-factor recruitment after 24 to 48 hrs by fluorescence assay
T1 sequence (whole entry): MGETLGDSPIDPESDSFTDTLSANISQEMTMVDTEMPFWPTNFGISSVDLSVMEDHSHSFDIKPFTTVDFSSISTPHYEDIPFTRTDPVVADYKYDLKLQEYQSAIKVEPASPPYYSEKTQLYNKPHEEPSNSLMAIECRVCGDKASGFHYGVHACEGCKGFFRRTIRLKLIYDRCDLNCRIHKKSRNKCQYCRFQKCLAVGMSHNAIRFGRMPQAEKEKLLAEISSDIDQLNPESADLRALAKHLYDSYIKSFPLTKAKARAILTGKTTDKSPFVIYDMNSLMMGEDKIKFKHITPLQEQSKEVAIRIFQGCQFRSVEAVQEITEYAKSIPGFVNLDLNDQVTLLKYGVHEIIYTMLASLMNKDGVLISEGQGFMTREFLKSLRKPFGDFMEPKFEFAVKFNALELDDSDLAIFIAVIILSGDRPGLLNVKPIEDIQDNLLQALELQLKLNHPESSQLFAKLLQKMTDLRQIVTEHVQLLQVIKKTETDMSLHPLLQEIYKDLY

[3] = system: Rattus norvegicus; test: Antidiabetic activity in Zucker diabetic fatty rat assessed as reduction in plasma glucose level administered orally once daily for 21 days measured on day 22; format: functional, organism-based
[4] = system: Rattus norvegicus; test: Toxicity in F344/DuCrlCrlj rat assessed as increase in heart weight at 50 mg/kg, po administered via gavage once daily for 28 days; format: organism-based; conditions: in vivo, 672 h
[5] = system: Rattus norvegicus; test: Toxicity in F344/DuCrlCrlj rat assessed as effect on ovary weight at 50 mg/kg, po administered via gavage once daily for 28 days; format: organism-based; conditions: in vivo, 672 h
[6] = AUC (0 to 24 hrs) in Zucker diabetic fatty rat at 0.3 mg/kg, po administered once daily for 21 days followed by additional administration on day 22; format: ADME, organism-based; design: dose 0.3 mg/kg, time < 24 hr, route oral; conditions: in vivo
[7] = system: Rattus norvegicus; test: Toxicity in F344/DuCrlCrlj rat assessed as death at 50 mg/kg, po administered via gavage once daily for 28 days; format: organism-based; conditions: in vivo, 672 h
[8] = AUC (0 to 24 hrs) in F344/DuCrlCrlj rat at 50 mg/kg, po via gavage measured on day 28 post dose; format: ADME, organism-based; design: time < 24 hr, dose 50 mg/kg, route oral; conditions: in vivo
[9] = target: T1, Peroxisome proliferator-activated receptor gamma (Homo sapiens); test: Agonist activity at recombinant human GAL4-TAD fused PPARgamma LBD assessed as induction of GAL4-DBD fused TRAP220 co-factor recruitment after 24 to 48 hrs by fluorescence assay
[10] = target: T1, Peroxisome proliferator-activated receptor gamma (Homo sapiens); test: Agonist activity at recombinant human GAL4-TAD fused PPARgamma LBD assessed as induction of GAL4-DBD fused CBP co-factor recruitment after 24 to 48 hrs by fluorescence assay
[11] = in vivo; conditions: F344/DuCrlCrlj, rat, po, 50 mg/kg
Description: Tmax in F344/DuCrlCrlj rat at 50 mg/kg, po via gavage measured on day 28 post dose

[12] = system: Rattus norvegicus; test: Toxicity in F344/DuCrlCrlj rat assessed as reduction in RBC count at 50 mg/kg, po administered via gavage once daily for 28 days relative to control; format: organism-based; design: scale not given: the % may be the effect or the level left; conditions: in vivo, 672 h
[13] = system: Rattus norvegicus; test: Toxicity in F344/DuCrlCrlj rat assessed as body weight gain at 50 mg/kg, po administered via gavage once daily for 28 days relative to control; format: organism-based; conditions: in vivo, 672 h
[14] = system: Rattus norvegicus; test: Toxicity in F344/DuCrlCrlj rat assessed as effect on kidney weight at 50 mg/kg, po administered via gavage once daily for 28 days; format: organism-based; conditions: in vivo, 672 h
[15] = Drug uptake in F344/DuCrlCrlj rat plasma administered via oral gavage measured on day 28 post dose; format: ADME
[16] = system: Rattus norvegicus; test: Toxicity in F344/DuCrlCrlj rat assessed as clinical abnormality at 50 mg/kg, po administered via gavage once daily for 28 days; format: organism-based; conditions: in vivo, 672 h
[17] = system: Rattus norvegicus; test: Antidiabetic activity in Zucker diabetic fatty rat assessed as reduction in plasma glucose level at 0.3 mg/kg, po administered once daily for 21 days measured on day 22 relative to control; format: functional; design: scale not given: the % may be the effect or the level left
[18] = Tmax in Zucker diabetic fatty rat at 0.3 mg/kg, po administered once daily for 21 days followed by additional administration on day 22; format: ADME, organism-based; conditions: in vivo
[19] = target: T1, Peroxisome proliferator-activated receptor gamma (Homo sapiens); test: Agonist activity at recombinant human GAL4-TAD fused PPARgamma LBD assessed as induction of GAL4-DBD fused RIP140e184b co-factor recruitment after 24 to 48 hrs by fluorescence assay
[20] = system: Rattus norvegicus; test: Toxicity in F344/DuCrlCrlj rat assessed as effect on hematocrit at 50 mg/kg, po administered via gavage once daily for 28 days; format: organism-based; conditions: in vivo, 672 h
[21] = Cmax in Zucker diabetic fatty rat at 0.3 mg/kg, po administered once daily for 21 days followed by additional administration on day 22; format: ADME, organism-based; design: dose 0.3 mg/kg, route oral; conditions: in vivo
[22] = Cmax in F344/DuCrlCrlj rat at 50 mg/kg, po via gavage measured on day 28 post dose; format: ADME, organism-based; design: dose 50 mg/kg, route oral; conditions: in vivo
[23] = target: T1, Peroxisome proliferator-activated receptor gamma (Homo sapiens); test: Agonist activity at recombinant human GAL4-TAD fused PPARgamma LBD assessed as induction of GAL4-DBD fused NCoA3 co-factor recruitment after 24 to 48 hrs by fluorescence assay
[24] = system: Rattus norvegicus; test: Toxicity in Zucker diabetic fatty rat assessed as body weight gain at 3 mg/kg, po administered once daily for 14 days relative to control; format: organism-based; conditions: in vivo, 336 h
[25] = Tmax in F344/DuCrlCrlj rat at 100 mg/kg, po via gavage measured on day 28 post dose; format: ADME, organism-based; conditions: in vivo
[26] = Tmax in F344/DuCrlCrlj rat at 300 mg/kg, po via gavage measured on day 28 post dose; format: ADME, organism-based; conditions: in vivo
[27] = AUC (0 to 24 hrs) in F344/DuCrlCrlj rat at 300 mg/kg, po via gavage measured on day 28 post dose; format: ADME, organism-based; design: time < 24 hr, dose 300 mg/kg, route oral; conditions: in vivo
[28] = Cmax in F344/DuCrlCrlj rat at 300 mg/kg, po via gavage measured on day 28 post dose; format: ADME, organism-based; design: dose 300 mg/kg, route oral; conditions: in vivo
[29] = AUC (0 to 24 hrs) in F344/DuCrlCrlj rat at 1000 mg/kg, po via gavage measured on day 28 post dose; format: ADME, organism-based; design: time < 24 hr, dose 1000 mg/kg, route oral; conditions: in vivo
[30] = Cmax in F344/DuCrlCrlj rat at 1000 mg/kg, po via gavage measured on day 28 post dose; format: ADME, organism-based; design: dose 1000 mg/kg, route oral; conditions: in vivo
[31] = Tmax in F344/DuCrlCrlj rat at 1000 mg/kg, po via gavage measured on day 28 post dose; format: ADME, organism-based; conditions: in vivo
[32] = Cmax in F344/DuCrlCrlj rat at 100 mg/kg, po via gavage measured on day 28 post dose; format: ADME, organism-based; design: dose 100 mg/kg, route oral; conditions: in vivo
[33] = AUC (0 to 24 hrs) in F344/DuCrlCrlj rat at 100 mg/kg, po via gavage measured on day 28 post dose; format: ADME, organism-based; design: dose 100 mg/kg, time < 24 hr, route oral; conditions: in vivo

Compound: CN(CCOc1ccc(CC2SC(=O)NC2=O)cc1)c1ccccn1 (centres undefined) [ROSIGLITAZONE]
- Activity [1]: 40.3%
- Activity [2]: Active
- Activity [3]: Dose-dependent effect
- Activity [4]: 18%
- Activity [5]: Toxic
- AUC at 24 h [6]: 6.55 µg·h/mL
- Activity [7]: Non-Toxic
- AUC at 24 h [8]: 525 µg·h/mL
- Activity [9]: Active
- Activity [10]: Active
- Tmax [11]: 1 h
- Activity [12]: 13%
- Activity [13]: 10%
- Activity [14]: Toxic
- Drug uptake [15]: Dose-dependent effect
- Activity [16]: Non-Toxic
- Activity [17]: 50%
- Tmax [18]: 1.6 h
- Activity [19]: Active
- Activity [20]: Non-Toxic
- Cmax [21]: 1.04 µg/mL
- Cmax [22]: 67.6 µg/mL
- Activity [23]: Active
- Activity [24]: 12.6%

Compound: Cc1cnc(Oc2ccc3nc(COc4cccc(C(=O)O)c4)n(C)c3c2)c(C)c1.Cl
- Tmax [25]: 0.5 h
- Tmax [26]: 0.5 h
- AUC at 24 h [27]: 933 µg·h/mL
- Cmax [28]: 206 µg/mL
- AUC at 24 h [29]: 1080 µg·h/mL
- Cmax [30]: 273 µg/mL
- Drug uptake [15]: Dose-dependent effect
- Tmax [31]: 1 h
- Cmax [32]: 92.8 µg/mL
- AUC at 24 h [33]: 399 µg·h/mL
